US20170295779A9, “COMPOSITION COMPRISING A PESTICIDE AND AMIDE” (BASF SE, priority 2013, published 2017)

Experiments:
barley (cultivar Lawina) = test: Phytotoxicity greenhouse test, spray of carboxylic acid amide on barley; type: in vivo; conditions: 3-4 leaf stage, spray 200 l/ha comprising 1500 ml carboxylic acid amide/ha, visual score vs plants treated with water only
Protocol: Phytotoxicity in accordance with the present invention is determined by an assay where a spray comprising water (aqua dest.) and carboxylic acid amide (200 l/ha comprising 1500 ml carboxylic acid amide/ha) is prepared and applied on plants of barley (cultivar […]) being in 3-4 leaf stage at a water application rate of 1.5 l/ha. The experimental period lasts for 10 days. During this time, the experimental plants receive optimum watering, with nutrients being supplied via the water used for watering. The phytotoxicity is evaluated by awarding scores to the treated plants in comparison to untreated plants, i.e. treated with water only. The evaluation scale ranges from 0% to 100% phytotoxicity. The evaluation is done by visual examination. 0% phytotoxicity means that there are no differences between treated and untreated plants. Thus, no phytotoxicity in accordance with the present invention means that the treated plants to not have plant injury and there is no difference between treated and untreated plants. Low phytotoxicity in accordance with the present invention means that only 1 to 10% of the treated plants have plant injury as compared to untreated plants. For the greenhouse tests, barley (cultivar […]) was sown and cultivated in standard soil (type P, fine) for 3 weeks. The spray mixtures were applied with a minicompressor (4 times) in a laboratory fume hood on plants being in 3-4 leaf stage. A spray comprising water (aqua dest.) and dibutylpropionamide from Example 1 (200 l/ha comprising 1500 ml dibutylpropionamide/ha) was prepared and applied at a water application rate of 1.5 l/ha. The experimental period lasted for 10 days. During this time, the experimental plants received optimum watering, with nutrients being supplied via the water used for watering. The phytotoxicity was evaluated by assessing scores to the treated plants in comparison to untreated plants, i.e. treated with water only (see Table 1). The evaluation scale ranges from 0% to 100% phytotoxicity. The evaluation was done by visual examination. Thus, 0% phytotoxicity means that there were no differences between treated and untreated plants. […] A rating of 0% phytotoxicity means no crop injury. […] A rating of 100% means the complete destruction of all plants. […] Thus, less than 10% of the plants were affected when said carboxylic acid amides were applied on the plants in a dose of 1500 ml/ha. […] Thus, carboxylic acid amides wherein the N,N-alkyl groups are having more than two carbon atoms seem to have no or almost no phytotoxic effect on the plants and can therefore be used in agricultural compositions for reducing the phytotoxicity in such compositions.

[1] = Determination of the max. solubility of fungicides in carboxylic acid amides; type: physicochemical
Protocol: The respective fungicide was dissolved in the solvent of interest so that a supersaturated solution was obtained. The deposit was filtered off. The concentration of the fungicide in the supernatant was determined via quantitative 1H-NMR spectroscopy.

| SMILES | Phytotoxicity [%] 10 days after treatment (barley (cultivar Lawina)) | Phytotoxicity [%] 10 days after treatment (barley (cultivar Lawina); listed as dimethylpropionamide) | Solubility [%] Fluxapyroxad [1] |
| --- | --- | --- | --- |
| CCC(=O)N(CC)CC [Diethylpropionamide, N,N-diethyl-propionamide] | 6% | – | – |
| CCC(=O)N(C)C [Dimethylpropionamide, N,N-dimethyl-propionamide, reference compound] | 43% | up to 43% | – |
| CCCCCCCC(=O)N(CCCC)CCCC [C8-dibutylamide, N,N-dibutyl-octanamide] | 5% | – | – |
| CCCCN(CCCC)C(=O)CC [Dibutylpropionamide, N,N-dibutyl-propionamide] | 0% | – | 28% |
